Results from paper PMC10907358, “Identification of oleic acid as an endogenous ligand of GPR3” (Cell Research, 2024).
“Also recorded” adds a separate entry of the source.

Assays:
GPR3 = target: T1, GPR3 (Homo sapiens, UniProt P46089); test: GloSensor cAMP assay in GPR3 stably expressing AD293 cell line (agonist mode); format: cell-based; conditions: for maximum response: Table S2, relative cAMP level, at 500 μM (FA 12:0, 16:1, 18:0, OEA 18:1, OLM 18:1), 450 μM (FA 18:1), 400 μM (FA 16:0), 300 μM (FA 22:0, 18:2), 100 μM (FAME 18:0, FAEE 18:0, lysophospholipids), 3 μM (LTB4); for EC50: cAMP induction; for EC50 / cAMP induction activity (in words): GPR3 stably expressing AD293
T1 construct: expressed in transfected cells
Experimental: The GloSensor cAMP assay was performed according to the instructions of Promega. AD293 cells were split into 6-well plate (300,000 cells/mL) and then transfected with the pGloSensor™-22F cAMP plasmid and pcDNA3-GPR3 plasmid by Lipofectamine 2000, at a ratio of 2:1 (μL:μg). 24 h after transfection, cells were split into 96-well plate for another 24 h incubation. After removal of cell medium, 90 μL of 3% v/v (the GloSensor cAMP reagent vs serum-free medium) substrate was added into each well. After 2 h incubation at RT, background measurements were taken, and then 10 μL 10× stock compounds were added for the second measurements of ligand activation via EnVision 2105 (PerkinElmer). Relative cAMP level was calculated by the cAMP level after addition of ligand divided by the cAMP level before addition of ligand (basal level). Stock FAs (i.e., 10–50 mM) were solubilized in DMSO, then diluted in cell culture buffer to designated concentrations and sonicated to ensure that they were evenly distributed in the buffer before being added to cells.
AD293 cells were split into 6-well plate (300,000 cells/mL), and then transfected with the pGloSensor™-22F cAMP plasmid and the pcDNA6-GPR3-3× FLAG plasmid (WT receptor or the mutants, F120A^3.36, W260A^6.48, L283F^7.39, A201W^5.46, Y280A^7.36, H96A^2.60 and H96A^2.60/Y280A^7.36) by Lipofectamine 2000 at a ratio of 2:1 (μL:μg). Geneticin (2 mg/mL) and blasticidin (20 μg/mL) were used to select colonies that stably express both GPR3 and GloSensor 22F. The cell culture medium containing antibiotics was changed every 2 days till well-separated colonies appeared. Then individual single colony was picked by a small piece of sterilized filter paper soaked with trypsin and separately cultured in a single well of 24-well plate. At least 24 candidate colonies were selected for each mutant and WT. After several days of culture, each colony was triplicated. One of the triplicates was used for western blot analysis, another for the GloSensor cAMP assay, and the remaining one was stored for staining. The colonies with top scores in both expression (western blot) and functional assay were selected as the representative colonies for each mutant or WT for further analysis.

GPR6 = target: T2, GPR6 (Homo sapiens, UniProt P46095); test: GloSensor cAMP assay in GPR6 stably expressing AD293 cell line; format: cell-based; conditions: lipid concentration 300 μM
T2 construct: FLAG; expressed in transfected cells

[1] = system: Gs/cAMP/PKA signaling in iBAT; test: Ex vivo iBAT of WT mice, p-PKA substrate immunoblot; format: cell-based, mouse; conditions: WT iBAT at 4 °C; lipid 1 mM (OA also 5 mM), up to 4 h
Experimental: iBAT was isolated from C57BL/6N mice at 4-6 weeks old and cut into 10 mg pieces. […] Another group of iBAT pieces were incubated in DMEM medium at 4 °C, and treated with different doses of OA (0 mM, 1 mM, 5 mM) for 4 h. OA (Sigma, O1008) was dissolved in serum-free DMEM (Gibco, high glucose, 12100046) by using an ultrasonic cleaner at 40 °C for 10 min.

T1 sequence (P46089 whole entry): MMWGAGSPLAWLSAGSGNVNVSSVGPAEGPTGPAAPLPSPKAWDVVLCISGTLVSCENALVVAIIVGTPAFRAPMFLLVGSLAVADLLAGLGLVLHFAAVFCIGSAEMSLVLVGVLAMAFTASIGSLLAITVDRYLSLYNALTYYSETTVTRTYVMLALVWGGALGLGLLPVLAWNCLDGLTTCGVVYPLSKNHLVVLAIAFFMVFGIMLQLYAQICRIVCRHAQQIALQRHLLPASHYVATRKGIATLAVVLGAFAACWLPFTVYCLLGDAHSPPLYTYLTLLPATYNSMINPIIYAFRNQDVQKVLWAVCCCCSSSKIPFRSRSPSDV
T2 sequence (P46095 whole entry, species assumed): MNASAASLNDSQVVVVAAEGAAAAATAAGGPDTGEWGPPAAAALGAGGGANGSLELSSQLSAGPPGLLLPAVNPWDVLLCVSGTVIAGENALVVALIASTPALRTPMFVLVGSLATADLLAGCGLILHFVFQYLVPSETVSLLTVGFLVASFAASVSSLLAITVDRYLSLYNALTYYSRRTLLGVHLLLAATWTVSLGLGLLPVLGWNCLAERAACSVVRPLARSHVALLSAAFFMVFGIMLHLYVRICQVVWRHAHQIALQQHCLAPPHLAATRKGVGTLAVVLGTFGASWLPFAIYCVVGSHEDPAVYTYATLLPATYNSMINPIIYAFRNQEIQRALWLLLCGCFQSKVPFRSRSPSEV

| Compound | maximum response (GPR3) | Emax compared to Emax of OA (GPR3; cAMP assay) | EC50 (GPR3) | GPR6 activation (in words) (GPR6) | Emax / receptor activation compared to PAL (GPR3; cAMP assay) | cAMP induction activity (in words) (GPR3) | Gs/cAMP/PKA signaling (phosphorylation of PKA substrates) [1] |
| --- | --- | --- | --- | --- | --- | --- | --- |
| CCCCCCCC/C=C\CCCCCCCC(=O)NCCO [OEA, oleoylethanolamide] | 60.9 | half of the Emax of OA | 336 µM | – | – | – | – |
| CCCCCCCC/C=C\CCCCCCCC(N)=O [OLM, Oleamide] | 75.1 | half of the Emax of OA | 334 µM | – | – | – | – |
| CCCCCCCCCCCCCCCC(=O)O [PAL, palmitic acid] | 118.7 | slightly lower Emax than OA | 311 µM | – | – | – | – |
| LPA 16:0 | 0.5 | – | – | – | – | none of the lysophospholipids that we tested exhibited cAMP induction activity | – |
| LPA 18:1 | 0.5 | – | – | – | – | none of the lysophospholipids that we tested exhibited cAMP induction activity | – |
| LPC 14:0 | 1.8 | – | – | – | – | none of the lysophospholipids that we tested exhibited cAMP induction activity | – |

Now from value to compound, other results behind:

| maximum response (GPR3) | Emax compared to Emax of OA (GPR3; cAMP assay) | EC50 (GPR3) | GPR6 activation (in words) (GPR6) | Compound | Emax / receptor activation compared to PAL (GPR3; cAMP assay) | cAMP induction activity (in words) (GPR3) | Gs/cAMP/PKA signaling (phosphorylation of PKA substrates) [1] |
| --- | --- | --- | --- | --- | --- | --- | --- |
| 61.8 | – | 328 µM | strongly activated GPR6 | CCCCCC/C=C\CCCCCCCC(=O)O [PML, palmitoleic acid] | half of the Emax of PAL; also recorded: substantially decreased receptor activation compared to PAL | – | – |
| 0.6 | – | – | – | CCCCCCCCCCCCC/C=C/[C@@H](O)[C@@H](N)COP(=O)(O)O [S1P, sphingosine-1-phosphate] | – | none of the lysophospholipids that we tested exhibited cAMP induction activity | – |
| 44.8 | about 1/3 | 361 µM | – | CCCCCCCCCCCCCCCCCC(=O)O [STE, stearic acid] | – | weak activity | neither STE nor LIN induced Gs/cAMP/PKA signaling |
